Laboratory results from patent US20260182217A1, “DISPLAY PANEL, ELECTRONIC DEVICE INCLUDING THE SAME, AND METHOD FOR MANUFACTURING THE DISPLAY PANEL” (priority 2024, published 2026).

Assay: physchem

pKa: 5
Structure (SMILES): CCCCCCCCC(=O)O [A11]
